Reference: ChEMBL document CHEMBL5325474, “Di-indenopyridines as topoisomerase II-selective anticancer agents: Design, synthesis, and structure-activity relationships” (Bioorg Med Chem, 2023)
Active and inactive are the calls of the source. The calls are words filed in the database; no cut-off is given here.

Columns and labels:
Calf thymus DNA = assay: Displacement of EtBr from calf thymus DNA assessed as reduction in fluorescence intensity at 5 to 40 uM preincubated with EtBr for 30 mins followed by compound addition and measured after 30 mins by microplate reader analysis; type: nucleic-acid assay; conditions: Bos taurus, dose 5-40 µM
DU-145 = assay: Antiproliferative activity against human DU-145 cells incubated for 72 hrs by microplate reader analysis; type: functional, cell-based; conditions: DU-145, 72 h
T47D = assay: Antiproliferative activity against human T47D cells incubated for 72 hrs by microplate reader analysis; type: functional, cell-based
[1] = molecular target: DNA topoisomerase 2-alpha (Homo sapiens) (UniProt P11388); assay: Inhibition of human DNA topoisomerase 2 alpha at 100 uM using supercoiled pBR322 DNA as substrate incubated for 30 mins by EtBr staining based agarose gel electrophoresis method relative to control
Sequence of DNA topoisomerase 2-alpha (Homo sapiens) (P11388 whole entry): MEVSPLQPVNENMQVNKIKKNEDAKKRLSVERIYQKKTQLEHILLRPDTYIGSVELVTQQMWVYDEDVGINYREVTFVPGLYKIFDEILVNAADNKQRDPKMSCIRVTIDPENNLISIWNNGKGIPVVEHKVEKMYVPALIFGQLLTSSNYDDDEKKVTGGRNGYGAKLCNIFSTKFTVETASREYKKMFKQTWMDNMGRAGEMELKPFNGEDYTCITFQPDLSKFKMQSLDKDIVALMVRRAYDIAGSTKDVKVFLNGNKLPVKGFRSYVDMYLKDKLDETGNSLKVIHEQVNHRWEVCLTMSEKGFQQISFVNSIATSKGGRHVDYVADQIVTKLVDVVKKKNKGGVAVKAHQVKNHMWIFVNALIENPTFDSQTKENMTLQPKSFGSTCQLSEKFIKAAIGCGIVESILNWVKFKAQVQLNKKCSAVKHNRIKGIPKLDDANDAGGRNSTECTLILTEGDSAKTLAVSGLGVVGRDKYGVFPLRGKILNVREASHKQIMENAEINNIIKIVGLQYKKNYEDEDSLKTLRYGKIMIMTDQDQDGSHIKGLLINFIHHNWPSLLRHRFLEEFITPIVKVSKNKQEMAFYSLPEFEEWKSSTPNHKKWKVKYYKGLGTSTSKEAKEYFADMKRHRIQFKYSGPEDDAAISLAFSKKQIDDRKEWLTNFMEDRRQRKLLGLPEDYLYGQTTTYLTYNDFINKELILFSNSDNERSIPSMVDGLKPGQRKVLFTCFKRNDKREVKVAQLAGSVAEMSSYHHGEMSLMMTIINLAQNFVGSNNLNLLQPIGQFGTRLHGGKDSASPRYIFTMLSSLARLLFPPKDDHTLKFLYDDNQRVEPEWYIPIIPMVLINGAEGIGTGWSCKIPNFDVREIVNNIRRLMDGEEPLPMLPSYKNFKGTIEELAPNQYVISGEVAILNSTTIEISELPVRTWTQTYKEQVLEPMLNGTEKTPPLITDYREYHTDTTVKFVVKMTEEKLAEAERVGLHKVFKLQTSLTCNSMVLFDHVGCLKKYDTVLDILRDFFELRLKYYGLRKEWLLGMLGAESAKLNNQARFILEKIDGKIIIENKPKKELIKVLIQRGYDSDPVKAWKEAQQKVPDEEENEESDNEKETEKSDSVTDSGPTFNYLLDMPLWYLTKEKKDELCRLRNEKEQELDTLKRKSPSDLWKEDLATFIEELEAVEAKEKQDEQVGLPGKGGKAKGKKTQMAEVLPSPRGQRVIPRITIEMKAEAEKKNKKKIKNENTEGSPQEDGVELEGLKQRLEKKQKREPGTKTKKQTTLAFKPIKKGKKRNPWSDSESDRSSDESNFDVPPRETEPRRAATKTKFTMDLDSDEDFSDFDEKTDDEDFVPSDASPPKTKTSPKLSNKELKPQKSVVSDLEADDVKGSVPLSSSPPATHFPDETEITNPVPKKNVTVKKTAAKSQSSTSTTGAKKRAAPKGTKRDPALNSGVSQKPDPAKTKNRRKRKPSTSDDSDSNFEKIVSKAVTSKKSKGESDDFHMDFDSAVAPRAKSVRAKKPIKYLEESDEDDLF

HCT-15 = assay: Antiproliferative activity against human HCT-15 cells incubated for 72 hrs by microplate reader analysis; type: functional, cell-based; conditions: HCT-15, 72 h
HeLa = assay: Antiproliferative activity against human HeLa cells incubated for 72 hrs by microplate reader analysis; type: functional, cell-based
[2] = molecular target: DNA topoisomerase 2-alpha (Homo sapiens) (UniProt P11388); assay: Inhibition of human DNA topoisomerase 2 alpha at 20 uM using supercoiled pBR322 DNA as substrate incubated for 30 mins by EtBr staining based agarose gel electrophoresis method relative to control
[3] = molecular target: T1, DNA topoisomerase 1 (Homo sapiens) (UniProt P11387); assay: Inhibition of human DNA topoisomerase 1 at 100 uM using supercoiled pBR322 DNA as substrate incubated for 30 mins by EtBr staining based agarose gel electrophoresis method relative to control
T1 sequence (whole entry): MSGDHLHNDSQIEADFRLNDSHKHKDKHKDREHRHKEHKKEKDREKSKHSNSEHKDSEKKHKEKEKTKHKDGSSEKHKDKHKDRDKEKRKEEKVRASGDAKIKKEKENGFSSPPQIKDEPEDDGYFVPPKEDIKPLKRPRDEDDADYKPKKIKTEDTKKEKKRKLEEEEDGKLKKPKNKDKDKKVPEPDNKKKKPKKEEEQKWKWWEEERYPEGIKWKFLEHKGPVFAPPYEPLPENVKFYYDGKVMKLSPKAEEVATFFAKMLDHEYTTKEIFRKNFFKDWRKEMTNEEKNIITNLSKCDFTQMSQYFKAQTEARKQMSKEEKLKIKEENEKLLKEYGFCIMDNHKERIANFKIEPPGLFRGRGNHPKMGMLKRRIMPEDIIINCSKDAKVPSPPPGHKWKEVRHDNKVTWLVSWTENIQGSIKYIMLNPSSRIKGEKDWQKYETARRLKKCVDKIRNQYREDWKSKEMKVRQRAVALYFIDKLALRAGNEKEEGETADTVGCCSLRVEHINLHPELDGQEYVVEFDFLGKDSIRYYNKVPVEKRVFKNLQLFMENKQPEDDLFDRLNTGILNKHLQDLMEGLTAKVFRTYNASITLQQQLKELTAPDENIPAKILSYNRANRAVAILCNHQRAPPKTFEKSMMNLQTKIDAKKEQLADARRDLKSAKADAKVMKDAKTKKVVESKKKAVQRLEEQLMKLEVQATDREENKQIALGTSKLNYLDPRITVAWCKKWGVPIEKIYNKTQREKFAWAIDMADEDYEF

[4] = molecular target: DNA topoisomerase 2-alpha (Homo sapiens) (UniProt P11388); assay: Catalytic inhibition of human DNA topoisomerase 2 alpha expressed in baculovirus infected insect cells assessed as reduction in linear DNA formation at 200 to 500 uM using supercoiled pBR322 DNA as substrate incubated for 30 mins by agarose gel electrophoresis; conditions: dose 200-500 µM
[5] = molecular target: DNA topoisomerase 2-alpha (Homo sapiens) (UniProt P11388); assay: Poison activity at topoisomerase 2 alpha in human HCT-15 cells at 20 uM incubated for 24 hrs by alkaline comet assay; type: cell-based

Row | SMILES | Activity (Calf thymus DNA) | IC50 (DU-145) | IC50 (T47D) | inhibition [1] | IC50 (HCT-15) | IC50 (HeLa) | inhibition [2] | inhibition [3] | inhibition [4] | Activity [5]
1 | COc1cc(NS(C)(=O)=O)ccc1Nc1c2ccccc2nc2ccccc12 | Active | – | – | – | – | – | – | – | – | –
2 | CC[C@@]1(O)C(=O)OCc2c1cc1n(c2=O)Cc2cc3ccccc3nc2-1 [CAMPTOTHECIN] | – | 0.61 µM | – | – | – | – | – | – | – | –
3 | Oc1ccc(-c2c3c(nc4c2Cc2c(O)cccc2-4)-c2cccc(O)c2C3)cc1 | – | 5.03 µM | 3.34 µM | 13.9% | 4.89 µM | 0.94 µM | – | – | – | –
4 | Oc1ccc2c(c1)-c1nc3c(c(-c4cccs4)c1C2)Cc1ccc(O)cc1-3 | – | 0.96 µM | 0.17 µM | 59.5% | 0.45 µM | 0.93 µM | 4.7% | 0.4% | – | –
5 | Oc1ccc2c(c1)-c1nc3c(c(-c4ccccc4O)c1C2)Cc1ccc(O)cc1-3 | – | 7.86 µM | 8.86 µM | 90.3% | 3.86 µM | 5.39 µM | 65.9% | – | – | –
6 | Oc1ccccc1-c1c2c(nc3c1Cc1c(O)cccc1-3)-c1cccc(O)c1C2 | – | > 50 µM | 5.3 µM | 77.1% | 8.69 µM | 2.1 µM | 41.8% | – | – | –
7 | Oc1cccc2c1Cc1c-2nc2c(c1-c1ccccc1)Cc1c(O)cccc1-2 | – | 3.66 µM | 1.12 µM | 100% | 1.51 µM | 0.59 µM | 1.6% | -0% | – | –
8 | Oc1ccc2c(c1)-c1nc3c(c(-c4ccc(C(F)(F)F)cc4)c1C2)Cc1ccc(O)cc1-3 | – | 5.84 µM | 5.8 µM | 0.1% | 9.06 µM | 10.5 µM | – | -0% | – | –
9 | Oc1cccc2c1-c1nc3c(c(-c4ccccc4OC(F)(F)F)c1C2)Cc1cccc(O)c1-3 | – | 0.87 µM | 0.05 µM | 84.8% | 0.93 µM | 3.23 µM | 1.6% | -0% | – | –
10 | Oc1ccc2c(c1)Cc1c-2nc2c(c1-c1cccc(F)c1)Cc1cc(O)ccc1-2 | – | > 50 µM | > 50 µM | 96.5% | > 50 µM | > 50 µM | 3.2% | -0% | – | –
11 | Oc1cccc(-c2c3c(nc4c2Cc2cccc(O)c2-4)-c2c(O)cccc2C3)c1 | – | 2.58 µM | 6.84 µM | 26% | 0.96 µM | 0.87 µM | – | – | – | –
12 | Oc1ccc(-c2c3c(nc4c2Cc2cc(O)ccc2-4)-c2ccc(O)cc2C3)cc1 | – | > 50 µM | 6.38 µM | 73.1% | > 50 µM | > 50 µM | 55.7% | – | – | –
13 | Oc1cccc(-c2c3c(nc4c2Cc2cc(O)ccc2-4)-c2ccc(O)cc2C3)c1 | – | > 50 µM | > 50 µM | 56.8% | > 50 µM | > 50 µM | 40.8% | – | – | –
14 | Oc1cccc2c1-c1nc3c(c(-c4ccsc4)c1C2)Cc1cccc(O)c1-3 | – | > 50 µM | > 50 µM | 13.4% | > 50 µM | > 50 µM | – | -0% | – | –
15 | Oc1ccc2c(c1)Cc1c-2nc2c(c1-c1cccc(Cl)c1)Cc1cc(O)ccc1-2 | – | > 50 µM | > 50 µM | 91.4% | > 50 µM | > 50 µM | 3.5% | -0% | – | –
16 | Oc1cccc2c1Cc1c-2nc2c(c1-c1ccco1)Cc1c(O)cccc1-2 | inactive | 5.23 µM | 4.16 µM | 100% | 1.71 µM | 9.63 µM | 100% | -0% | Active | inactive
17 | COc1cccc2c1C(=O)c1c(O)c3c(c(O)c1C2=O)C[C@@](O)(C(=O)CO)C[C@@H]3O[C@H]1C[C@H](N)[C@H](O)[C@H](C)O1 [DOXORUBICIN] | – | 5.53 µM | 2.53 µM | – | 3.53 µM | 1.68 µM | – | – | – | –
18 | c1ccc(-c2c3c(nc4c2Cc2ccccc2-4)-c2ccccc2C3)cc1 | – | > 50 µM | > 50 µM | 2.6% | > 50 µM | > 50 µM | – | -0% | – | –
19 | Oc1ccc(-c2c3c(nc4c2Cc2cccc(O)c2-4)-c2c(O)cccc2C3)cc1 | – | 0.89 µM | 4.33 µM | 43.6% | 0.95 µM | 2.96 µM | 31.7% | – | – | –
20 | Oc1ccc(-c2c3c(nc4c2Cc2c(F)cccc2-4)-c2cccc(F)c2C3)cc1 | – | > 50 µM | > 50 µM | 41.5% | > 50 µM | > 50 µM | 2.5% | -0% | – | –
21 | Oc1cccc(-c2c3c(nc4c2Cc2ccc(O)cc2-4)-c2cc(O)ccc2C3)c1 | – | > 50 µM | > 50 µM | 22.5% | > 50 µM | > 50 µM | – | – | – | –
22 | COc1cc([C@@H]2c3cc4c(cc3[C@@H](O[C@@H]3O[C@@H]5CO[C@@H](C)O[C@H]5[C@H](O)[C@H]3O)[C@H]3COC(=O)[C@H]23)OCO4)cc(OC)c1O [ETOPOSIDE] | – | 9.87 µM | 0.97 µM | – | 1.97 µM | 3.38 µM | – | – | – | –
23 | Oc1ccc(-c2c3c(nc4c2Cc2ccc(C(F)(F)F)cc2-4)-c2cc(C(F)(F)F)ccc2C3)cc1 | – | 2.57 µM | > 50 µM | 51.4% | > 50 µM | > 50 µM | 4.5% | 7.1% | – | –
24 | Oc1cccc(-c2c3c(nc4c2Cc2c(O)cccc2-4)-c2cccc(O)c2C3)c1 | – | > 50 µM | > 50 µM | 21.2% | > 50 µM | > 50 µM | – | -0% | – | –
25 | Oc1ccc2c(c1)Cc1c-2nc2c(c1-c1ccccc1O)Cc1cc(O)ccc1-2 | – | 31.4 µM | > 50 µM | 93.3% | 46.1 µM | 22.5 µM | 7.5% | – | – | –
26 | Oc1ccc(-c2c3c(nc4c2Cc2ccc(O)cc2-4)-c2cc(O)ccc2C3)cc1 | – | > 50 µM | 5.24 µM | 84.2% | 27.8 µM | 20.4 µM | 78% | – | – | –
27 | Oc1ccccc1-c1c2c(nc3c1Cc1cccc(O)c1-3)-c1c(O)cccc1C2 | – | 1.81 µM | 3.82 µM | -0% | 4.84 µM | 1.56 µM | – | – | – | –
